Source: the NIST ThermoML archive (doi:10.1021/je900777q)
Several values for one entry are separate records, joined by “and”; a condition that tells them apart may be missing. Equal values may be shown once. Numbers after ± are expanded uncertainties.

Assays:
[1] = Crystal; for vapor or sublimation pressure: Calculated from knudsen effusion weight loss; for Normal melting temperature: DTA
[2] = Molar enthalpy of transition or fusion; conditions: Crystal; DSC

O=C(O)c1cc(O)ccc1O [2,5-dihydroxybenzoic acid]
vapor or sublimation pressure ([1]; 372.14 K): 0.00015 ± 2.1e-05 kPa and 0.000146 ± 2.1e-05 kPa and 0.000145 ± 2.1e-05 kPa | vapor or sublimation pressure ([1]; 374.13 K): 0.000192 ± 2.1e-05 kPa and 0.000182 ± 2.1e-05 kPa and 0.000183 ± 2.1e-05 kPa | vapor or sublimation pressure ([1]; 376.19 K): 0.000231 ± 2.2e-05 kPa and 0.000221 ± 2.1e-05 kPa | vapor or sublimation pressure ([1]; 378.15 K): 0.000287 ± 2.2e-05 kPa and 0.000299 ± 2.3e-05 kPa and 0.000285 ± 2.2e-05 kPa | vapor or sublimation pressure ([1]; 380.3 K): 0.000373 ± 2.4e-05 kPa and 0.000356 ± 2.4e-05 kPa and 0.000364 ± 2.4e-05 kPa | vapor or sublimation pressure ([1]; 382.22 K): 0.00045 ± 2.6e-05 kPa | vapor or sublimation pressure ([1]; 384.7 K): 0.000572 ± 2.8e-05 kPa and 0.000574 ± 2.9e-05 kPa | vapor or sublimation pressure ([1]; 386.12 K): 0.000663 ± 3.1e-05 kPa and 0.000649 ± 3e-05 kPa | vapor or sublimation pressure ([1]; 388.92 K): 0.000905 ± 3.8e-05 kPa and 0.000871 ± 3.7e-05 kPa and 0.000866 ± 3.7e-05 kPa | Normal melting temperature [1]: 203.1 ± 0.5 °C | Molar enthalpy of transition or fusion [2]: 4.97 ± 0.813 kcal/mol

O=C(O)c1cc(O)cc(O)c1 [3,5-dihydroxybenzoic acid]
vapor or sublimation pressure ([1]; 407.36 K): 9.8e-05 ± 2e-05 kPa and 9.7e-05 ± 2e-05 kPa | vapor or sublimation pressure ([1]; 410.25 K): 0.00013 ± 2.1e-05 kPa and 0.000129 ± 2.1e-05 kPa | vapor or sublimation pressure ([1]; 413.16 K): 0.000176 ± 2.1e-05 kPa and 0.000179 ± 2.1e-05 kPa and 0.000175 ± 2.1e-05 kPa | vapor or sublimation pressure ([1]; 416.13 K): 0.000237 ± 2.2e-05 kPa and 0.000234 ± 2.2e-05 kPa and 0.000238 ± 2.2e-05 kPa | vapor or sublimation pressure ([1]; 419.21 K): 0.000305 ± 2.3e-05 kPa and 0.00031 ± 2.3e-05 kPa and 0.000311 ± 2.3e-05 kPa | vapor or sublimation pressure ([1]; 422.2 K): 0.000407 ± 2.5e-05 kPa and 0.000409 ± 2.5e-05 kPa and 0.000412 ± 2.5e-05 kPa | vapor or sublimation pressure ([1]; 425.23 K): 0.000561 ± 2.8e-05 kPa and 0.000563 ± 2.8e-05 kPa | Normal melting temperature [1]: 235.2 ± 0.5 °C | Molar enthalpy of transition or fusion [2]: 9.15 ± 0.263 kcal/mol

O=C(O)c1ccc(O)cc1O [2,4-dihydroxybenzoic acid]
vapor or sublimation pressure ([1]; 376.22 K): 0.000198 ± 2.1e-05 kPa and 0.000192 ± 2.1e-05 kPa and 0.000195 ± 2.1e-05 kPa | vapor or sublimation pressure ([1]; 377.32 K): 0.000224 ± 2.2e-05 kPa and 0.000217 ± 2.1e-05 kPa and 0.00022 ± 2.1e-05 kPa | vapor or sublimation pressure ([1]; 379.13 K): 0.000269 ± 2.2e-05 kPa and 0.00026 ± 2.2e-05 kPa and 0.000264 ± 2.2e-05 kPa | vapor or sublimation pressure ([1]; 381.15 K): 0.000315 ± 2.3e-05 kPa and 0.000319 ± 2.3e-05 kPa and 0.000332 ± 2.3e-05 kPa | vapor or sublimation pressure ([1]; 383.13 K): 0.000399 ± 2.4e-05 kPa and 0.000388 ± 2.4e-05 kPa and 0.00039 ± 2.4e-05 kPa | vapor or sublimation pressure ([1]; 385.12 K): 0.000501 ± 2.7e-05 kPa and 0.000489 ± 2.6e-05 kPa and 0.000493 ± 2.7e-05 kPa | vapor or sublimation pressure ([1]; 387.17 K): 0.000613 ± 3e-05 kPa and 0.000591 ± 2.9e-05 kPa and 0.000593 ± 2.9e-05 kPa | vapor or sublimation pressure ([1]; 389.35 K): 0.000762 ± 3.4e-05 kPa and 0.000732 ± 3.3e-05 kPa and 0.000741 ± 3.3e-05 kPa | vapor or sublimation pressure ([1]; 391.3 K): 0.000916 ± 3.8e-05 kPa and 0.000884 ± 3.7e-05 kPa and 0.000893 ± 3.7e-05 kPa | vapor or sublimation pressure ([1]; 392.11 K): 0.000988 ± 4e-05 kPa and 0.000961 ± 3.9e-05 kPa and 0.000955 ± 3.9e-05 kPa

O=C(O)c1ccc(O)c(O)c1 [3,4-dihydroxybenzoic acid]
vapor or sublimation pressure ([1]; 387.12 K): 8.9e-05 ± 2e-05 kPa and 8.7e-05 ± 2e-05 kPa and 8.6e-05 ± 2e-05 kPa | vapor or sublimation pressure ([1]; 391.31 K): 0.000132 ± 2.1e-05 kPa and 0.000133 ± 2.1e-05 kPa | vapor or sublimation pressure ([1]; 393.33 K): 0.000166 ± 2.1e-05 kPa and 0.000164 ± 2.1e-05 kPa and 0.000165 ± 2.1e-05 kPa | vapor or sublimation pressure ([1]; 395.2 K): 0.0002 ± 2.1e-05 kPa and 0.000202 ± 2.1e-05 kPa and 0.000201 ± 2.1e-05 kPa | vapor or sublimation pressure ([1]; 397.32 K): 0.000249 ± 2.2e-05 kPa and 0.000253 ± 2.2e-05 kPa and 0.00025 ± 2.2e-05 kPa | vapor or sublimation pressure ([1]; 401.25 K): 0.000367 ± 2.4e-05 kPa and 0.000365 ± 2.4e-05 kPa | vapor or sublimation pressure ([1]; 403.26 K): 0.000451 ± 2.6e-05 kPa and 0.000452 ± 2.6e-05 kPa and 0.00045 ± 2.6e-05 kPa

O=C(O)c1c(O)cccc1O [2,6-dihydroxybenzoic acid]
vapor or sublimation pressure ([1]; 347.14 K): 0.000138 ± 2.1e-05 kPa and 0.000131 ± 2.1e-05 kPa and 0.000133 ± 2.1e-05 kPa | vapor or sublimation pressure ([1]; 349.32 K): 0.000171 ± 2.1e-05 kPa and 0.000173 ± 2.1e-05 kPa | vapor or sublimation pressure ([1]; 351.02 K): 0.000204 ± 2.1e-05 kPa and 0.000208 ± 2.1e-05 kPa | vapor or sublimation pressure ([1]; 353.26 K): 0.000255 ± 2.2e-05 kPa and 0.000249 ± 2.2e-05 kPa | vapor or sublimation pressure ([1]; 355.35 K): 0.000323 ± 2.3e-05 kPa and 0.000336 ± 2.3e-05 kPa | vapor or sublimation pressure ([1]; 357.2 K): 0.000401 ± 2.5e-05 kPa and 0.000391 ± 2.4e-05 kPa and 0.000386 ± 2.4e-05 kPa | vapor or sublimation pressure ([1]; 359.28 K): 0.000491 ± 2.7e-05 kPa and 0.000477 ± 2.6e-05 kPa and 0.000479 ± 2.6e-05 kPa | vapor or sublimation pressure ([1]; 361.38 K): 0.000609 ± 2.9e-05 kPa and 0.00059 ± 2.9e-05 kPa and 0.000586 ± 2.9e-05 kPa | vapor or sublimation pressure ([1]; 363.19 K): 0.000713 ± 3.2e-05 kPa and 0.000692 ± 3.2e-05 kPa and 0.000679 ± 3.1e-05 kPa | vapor or sublimation pressure ([1]; 365.17 K): 0.000881 ± 3.7e-05 kPa and 0.000845 ± 3.6e-05 kPa and 0.000834 ± 3.6e-05 kPa

O=C(O)c1cccc(O)c1O [2,3-dihydroxybenzoic acid]
vapor or sublimation pressure ([1]; 345.22 K): 0.000158 ± 2.1e-05 kPa and 0.000159 ± 2.1e-05 kPa and 0.000157 ± 2.1e-05 kPa | vapor or sublimation pressure ([1]; 347.21 K): 0.000201 ± 2.1e-05 kPa and 0.000196 ± 2.1e-05 kPa and 0.000197 ± 2.1e-05 kPa | vapor or sublimation pressure ([1]; 349.23 K): 0.00025 ± 2.2e-05 kPa and 0.000248 ± 2.2e-05 kPa and 0.000246 ± 2.2e-05 kPa | vapor or sublimation pressure ([1]; 351.19 K): 0.000308 ± 2.3e-05 kPa and 0.00031 ± 2.3e-05 kPa | vapor or sublimation pressure ([1]; 353.21 K): 0.00038 ± 2.4e-05 kPa and 0.000377 ± 2.4e-05 kPa | vapor or sublimation pressure ([1]; 355.17 K): 0.000468 ± 2.6e-05 kPa and 0.000466 ± 2.6e-05 kPa | vapor or sublimation pressure ([1]; 357.2 K): 0.000569 ± 2.8e-05 kPa and 0.000565 ± 2.8e-05 kPa and 0.000564 ± 2.8e-05 kPa | vapor or sublimation pressure ([1]; 359.2 K): 0.000716 ± 3.2e-05 kPa and 0.000708 ± 3.2e-05 kPa and 0.000711 ± 3.2e-05 kPa | vapor or sublimation pressure ([1]; 361.21 K): 0.000867 ± 3.7e-05 kPa and 0.000857 ± 3.6e-05 kPa and 0.000861 ± 3.6e-05 kPa | vapor or sublimation pressure ([1]; 363.18 K): 0.001039 ± 8.1e-05 kPa and 0.001029 ± 8e-05 kPa | Normal melting temperature [1]: 203.2 ± 1.3 °C | Molar enthalpy of transition or fusion [2]: 7.62 ± 0.287 kcal/mol
